Assay results taken from ChEMBL document CHEMBL3885881, “DrugMatrix”.

Species on record: Rattus norvegicus
Experiment: DrugMatrix - Regimen: Daily Repeat
Format: toxicity, organism-based, Sprague-Dawley
Set-up: regimen Daily Repeat, gender Male, age 6-8 weeks
Settings: in vivo, po, route oral GAVAGE, vehicle .5 % CMC; for ABSOLUTE BASOPHIL / ABSOLUTE EOSINOPHIL / ABSOLUTE LYMPHOCYTE / ABSOLUTE MONOCYTE / ABSOLUTE SEGMENTED NEUTROPHIL / BASOPHIL / EOSINOPHIL / ERYTHROCYTE COUNT / HEMATOCRIT / HEMOGLOBIN / LEUKOCYTE COUNT / LYMPHOCYTE / MEAN CORPUSCULAR HEMOGLOBIN / MEAN CORPUSCULAR HEMOGLOBIN CONCENTRATION / MEAN CORPUSCULAR VOLUME / MONOCYTE / NEUTROPHIL / NUCLEATED RED BLOOD CELLS / PLATELET COUNT: tissue Blood; for ALANINE AMINOTRANSFERASE / ALBUMIN / ALKALINE PHOSPHATASE / ASPARTATE AMINOTRANSFERASE / BLOOD UREA NITROGEN / CARBON DIOXIDE / CHLORIDE / CHOLESTEROL / CREATINE PHOSPHOKINASE / CREATININE / GLUCOSE / LACTATE DEHYDROGENASE / LIPASE / PHOSPHORUS / POTASSIUM / SODIUM / TOTAL BILIRUBIN / TOTAL PROTEIN / URIC ACID: tissue Plasma
[1] = 0 mg/kg, 72 h, dose level Control, time 3 day
[2] = 0 mg/kg, 120 h, dose level Control, time 5 day
[3] = 2000 mg/kg, 72 h, dose level High, time 3 day

O=C1Nc2ccc(Cl)cc2C(c2ccccc2Cl)=NC1O (centres undefined) [LORAZEPAM]
ABSOLUTE BASOPHIL [1]: 0 CELLS/uL
ABSOLUTE EOSINOPHIL [1]: 171.33 CELLS/uL
ABSOLUTE LYMPHOCYTE [1]: 13776.5 CELLS/uL
ABSOLUTE MONOCYTE [1]: 180.83 CELLS/uL
ABSOLUTE SEGMENTED NEUTROPHIL [1]: 1121.33 CELLS/uL
BASOPHIL [1]: 0%
EOSINOPHIL [1]: 1%
ERYTHROCYTE COUNT [1]: 5.56 x10E6/uL
HEMATOCRIT [1]: 34.75%
HEMOGLOBIN [1]: 13.68 G/DL
LEUKOCYTE COUNT [1]: 15.25 x10E3/uL
LYMPHOCYTE [1]: 90.17%
MEAN CORPUSCULAR HEMOGLOBIN [1]: 24.6 pg
MEAN CORPUSCULAR HEMOGLOBIN CONCENTRATION [1]: 39.4 G/DL
MEAN CORPUSCULAR VOLUME [1]: 62.48 fL
MONOCYTE [1]: 1.17%
NEUTROPHIL [1]: 7.67%
NUCLEATED RED BLOOD CELLS [1]: 0 /100WBC
PLATELET COUNT [1]: 1342 x10E3/uL
ALANINE AMINOTRANSFERASE [1]: 49.67 u/L
ALBUMIN [1]: 4.15 G/DL
ALKALINE PHOSPHATASE [1]: 346.83 u/L
ASPARTATE AMINOTRANSFERASE [1]: 108.17 u/L
BLOOD UREA NITROGEN [1]: 17.33 mg/dL
CARBON DIOXIDE [1]: 25 mmol/L
CHLORIDE [1]: 100.83 MEQ/L
CHOLESTEROL [1]: 66.83 mg/dL
CREATINE PHOSPHOKINASE [1]: 788 u/L
CREATININE [1]: 0.18 mg/dL
GLUCOSE [1]: 151.67 mg/dL
LACTATE DEHYDROGENASE [1]: 982.5 u/L
LIPASE [1]: 10.33 u/L
PHOSPHORUS [1]: 11.23 mg/dL
POTASSIUM [1]: 6.37 MEQ/L
SODIUM [1]: 141.02 MEQ/L
TOTAL BILIRUBIN [1]: 0.18 mg/dL
TOTAL PROTEIN [1]: 5.9 G/DL
URIC ACID [1]: 1.8 mg/dL
ABSOLUTE BASOPHIL [2]: 0 CELLS/uL
ABSOLUTE EOSINOPHIL [2]: 69 CELLS/uL
ABSOLUTE LYMPHOCYTE [2]: 13632.83 CELLS/uL
ABSOLUTE MONOCYTE [2]: 139.83 CELLS/uL
ABSOLUTE SEGMENTED NEUTROPHIL [2]: 1225 CELLS/uL
BASOPHIL [2]: 0%
EOSINOPHIL [2]: 0.33%
ERYTHROCYTE COUNT [2]: 5.52 x10E6/uL
HEMATOCRIT [2]: 33.98%
HEMOGLOBIN [2]: 13.22 G/DL
LEUKOCYTE COUNT [2]: 15.07 x10E3/uL
LYMPHOCYTE [2]: 90.83%
MEAN CORPUSCULAR HEMOGLOBIN [2]: 23.95 pg
MEAN CORPUSCULAR HEMOGLOBIN CONCENTRATION [2]: 38.9 G/DL
MEAN CORPUSCULAR VOLUME [2]: 61.53 fL
MONOCYTE [2]: 0.83%
NEUTROPHIL [2]: 8%
NUCLEATED RED BLOOD CELLS [2]: 0 /100WBC
PLATELET COUNT [2]: 1196 x10E3/uL
ALANINE AMINOTRANSFERASE [2]: 49.17 u/L
ALBUMIN [2]: 4.2 G/DL
ALKALINE PHOSPHATASE [2]: 352.33 u/L
ASPARTATE AMINOTRANSFERASE [2]: 89.67 u/L
BLOOD UREA NITROGEN [2]: 18 mg/dL
CARBON DIOXIDE [2]: 27.67 mmol/L
CHLORIDE [2]: 101 MEQ/L
CHOLESTEROL [2]: 72.83 mg/dL
CREATINE PHOSPHOKINASE [2]: 417.5 u/L
CREATININE [2]: 0.18 mg/dL
GLUCOSE [2]: 150.5 mg/dL
LACTATE DEHYDROGENASE [2]: 517.33 u/L
LIPASE [2]: 9 u/L
PHOSPHORUS [2]: 11.87 mg/dL
POTASSIUM [2]: 6.57 MEQ/L
SODIUM [2]: 143.62 MEQ/L
TOTAL BILIRUBIN [2]: 0.2 mg/dL
TOTAL PROTEIN [2]: 6.08 G/DL
URIC ACID [2]: 1.45 mg/dL
ABSOLUTE BASOPHIL [3]: 0 CELLS/uL
ABSOLUTE EOSINOPHIL [3]: 93.33 CELLS/uL
ABSOLUTE LYMPHOCYTE [3]: 11320 CELLS/uL
ABSOLUTE MONOCYTE [3]: 259.33 CELLS/uL
ABSOLUTE SEGMENTED NEUTROPHIL [3]: 1294 CELLS/uL
BASOPHIL [3]: 0%
EOSINOPHIL [3]: 0.67%
ERYTHROCYTE COUNT [3]: 6.11 x10E6/uL
HEMATOCRIT [3]: 38.6%
HEMOGLOBIN [3]: 15.07 G/DL
LEUKOCYTE COUNT [3]: 12.97 x10E3/uL
LYMPHOCYTE [3]: 87.33%
MEAN CORPUSCULAR HEMOGLOBIN [3]: 24.63 pg
MEAN CORPUSCULAR HEMOGLOBIN CONCENTRATION [3]: 39.03 G/DL
MEAN CORPUSCULAR VOLUME [3]: 63.1 fL
MONOCYTE [3]: 2%
NEUTROPHIL [3]: 10%
NUCLEATED RED BLOOD CELLS [3]: 0 /100WBC
PLATELET COUNT [3]: 1214.33 x10E3/uL
ALANINE AMINOTRANSFERASE [3]: 72.67 u/L
ALBUMIN [3]: 4.4 G/DL
ALKALINE PHOSPHATASE [3]: 338 u/L
ASPARTATE AMINOTRANSFERASE [3]: 105.33 u/L
BLOOD UREA NITROGEN [3]: 24 mg/dL
CARBON DIOXIDE [3]: 21.33 mmol/L
CHLORIDE [3]: 99.33 MEQ/L
CHOLESTEROL [3]: 119.67 mg/dL
CREATINE PHOSPHOKINASE [3]: 966.67 u/L
CREATININE [3]: 0.22 mg/dL
GLUCOSE [3]: 161.67 mg/dL
LACTATE DEHYDROGENASE [3]: 346.33 u/L
LIPASE [3]: 16.67 u/L
PHOSPHORUS [3]: 10.23 mg/dL
POTASSIUM [3]: 5.79 MEQ/L
SODIUM [3]: 140.87 MEQ/L
TOTAL BILIRUBIN [3]: 0.27 mg/dL
TOTAL PROTEIN [3]: 6.23 G/DL
URIC ACID [3]: 1.5 mg/dL
